Assay results reported in US5129937A, “Pyridyloxypyrimidine derivatives, preparation process thereof, and herbicidal compositions containing the same as active ingredients” (Mitsui Toatsu Chemicals Incorporated, priority 1989, dated 1992).

Legend:
Soybean (Glycine max) = assay: Upland Soil Application Test, crop injury; type: in vivo; conditions: 30 g ai/a; soil application before emergence, wettable powder; observed 30 days later
Experimental: (§1) Resin-made 1/2500-are pots were filled with the soil of an upland field. After they were fertilized, soybean, corn and cotton were seeded and 2-3 cm soil covering was applied. Seeds of redroot pigweed, morningglory (Ipomoea purpurea), common lambsquarters, barnyardgrass, green foxtail, large crabgrass, foxtail meadow and johnsongrass had been uniformly mixed with the soil. They were allowed to germinate in a green house. One day later (before emergence of weeds), a wettable powder prepared from a predetermined amount of each test compound in a similar manner to the method described in Formulation Example 1 was diluted with water and then sprayed evenly at an application rate equal to 10 l per are onto the surface of the soil by means of a pressure-operated ULV (ultra low volume) sprayer. Influence to the crops and weeds were observed 30 days later. The results are shown in Table 3, in which the degree of damages of each test plant and the degree of injury to each crop were determined by comparing the air-dried weights of the test plant and crop with those of the corresponding plant and crop in untreated pots and are shown in accordance with the following standard: […]

[1] = system: Cotton (Gossypium indicum); assay: Upland Soil Application Test, crop injury; type: in vivo; conditions: 30 g ai/a; soil application before emergence, wettable powder; observed 30 days later
Experimental: as §1

Corn (Zea maize) = assay: Upland Soil Application Test, crop injury; type: in vivo; conditions: 30 g ai/a; soil application before emergence, wettable powder; observed 30 days later
Experimental: as §1

[2] = system: Barnyardgrass (Echinochloa crus-galli); assay: Submerged Soil Treatment Test (Growth Stage Treatment); type: in vivo; conditions: 30 g ai/a, growth stage treatment (barnyardgrass two-leaf stage), granule, observed 30 days later
Experimental: (§2) 1/5000-are Wagner pots were filled with soil. Seeds or tubers of barnyardgrass, bulrush and Sagittaria pygmaea were seeded or planted under submerged condition. Two pairs of rice seedlings (2-3 leaf stage), which had been reared in advance, were transplanted to each pot and were allowed to grow in a green house. Each pair consisted of two rice seedlings. When the barnyardgrass grew to the two-leaf stage, each pot was treated with a granule which had been prepared by processing a predetermined amount of the test composition in accordance with a similar method to the method described in Formulation Example 9. The state of emergence of weeds and the state of injury of rice were observed 30 days later. In the table, the degrees of damages of the test plants and the degrees of injury of the rice are shown in a similar manner to Example 2.

[3] = system: Bulrush (Scirpus juncoides); assay: as above; type: in vivo; conditions: 30 g ai/a, growth stage treatment (barnyardgrass two-leaf stage), granule, observed 30 days later
Experimental: as §2

[4] = system: Arrowhead sp. (Sagittaria pygmaea); assay: as above; type: in vivo; conditions: 30 g ai/a, growth stage treatment (barnyardgrass two-leaf stage), granule, observed 30 days later
Experimental: as §2

[5] = system: ALS (acetolactate synthase); assay: ALS (Acetolactate Synthase) Inhibition Test, pea enzyme; type: biochemical; conditions: enzymoreaction inhibition rate at 10 ppm (5 μg/0.5 ml)
Experimental: To determine the selectivity in enzyme level between crops and weeds, an ALS inhibition test was conducted using pea as a representative of broadleaf crops and barnyardgrass as a representative of gramineous weeds.
After seeds of pea and barnyardgrass were allowed to germinate at 25° C. for 8-14 days in a dark place, partially-purified suspensions (Suspensions A) of acetolactate syntase were separately obtained from seedlings in accordance with the method described in the literature, Plant Physiology, 75, 827-831. In a test tube, […], followed by the addition of 0.15 ml of a 20 mM K2 HPO4 solution and 0.25 ml of a reaction substrate medium which consisted of 40 mM of K2 HPO4, 40 mM of sodium pyruvate, 1 mM of TPP, 1 mM of MgCl2 and 20 μM of FAD so that 0.4 ml of a reaction solution (Solution B) was prepared. Added to 0.4 ml of Solution B was 0.1 ml of Suspension A. After the resultant mixture was shaken for 1 hour in a thermostat water bath controlled at 30° C., 50 μl of 6N sulfuric acid were added to terminate the reaction.
Next, the reaction-terminated liquid mixture was transferred into a thermostat water bath controlled at 60° C. and was heated for 15 minutes. Thereafter, 0.5 ml of a 0.5% creatine solution and 0.5 ml of a 5% alkaline α-naphthol solution were added, and the resultant mixture was maintained at 60° C. for 15 minutes. As a result, the test solution developed a pink-red color. After the above operation, the absorbance of the test solution at 525 nm was measured by a spectrophotometer (Absorbance 1 of Test Compound).
On the other hand, the absorbance (Absorbance 2 of Blank) of a solution obtained by subjecting a portion of Solution B, said portion being free of the test compound, to the above operation and the absorbance (Absorbance 3 of sulfuric acid terminated) of another solution obtained by subjecting another portion of Solution B, said portion containing 50 μl of 6N sulfuric acid as a test compound, were measured at the same time. […] [formula]

Rice (Oryza sativa) [6] = assay: Submerged Soil Treatment Test (Growth Stage Treatment), crop injury; type: in vivo; conditions: 30 g ai/a, growth stage treatment (barnyardgrass two-leaf stage), granule, transplanted rice, observed 30 days later
Experimental: as §2

[7] = system: Foxtail (Setaria viridis); assay: Upland Soil Application Test; type: in vivo; conditions: 30 g ai/a; soil application before emergence, wettable powder; observed 30 days later
Experimental: as §1

Johnsongrass = assay: Upland Soil Application Test; type: in vivo; conditions: 30 g ai/a; soil application before emergence, wettable powder; observed 30 days later
Experimental: as §1

[8] = system: Crabgrass (Digitaria adsendens); assay: Upland Soil Application Test; type: in vivo; conditions: 30 g ai/a; soil application before emergence, wettable powder; observed 30 days later
Experimental: as §1

[9] = system: Barnyardgrass (Echinochloa crus-galli); assay: Upland Soil Application Test; type: in vivo; conditions: 30 g ai/a; soil application before emergence, wettable powder; observed 30 days later
Experimental: as §1

Foxtail meadow = assay: Upland Soil Application Test; type: in vivo; conditions: 30 g ai/a; soil application before emergence, wettable powder; observed 30 days later
Experimental: as §1

Common lambsquarters = assay: Upland Soil Application Test; type: in vivo; conditions: 30 g ai/a; soil application before emergence, wettable powder; observed 30 days later
Experimental: as §1

Redroot Pigweed = assay: Upland Soil Application Test; type: in vivo; conditions: 30 g ai/a; soil application before emergence, wettable powder; observed 30 days later
Experimental: as §1

Rice (Oryza sativa) [10] = assay: Submerged Soil Treatment Test (Pre-Emergence Treatment), crop injury; type: in vivo; conditions: 30 g ai/a, granule, transplanted rice, observed 30 days later
Experimental: as §2, with “allowed to germinate in a” for “allowed to grow in a”, “rice seedlings. On day later (before emergence of weeds), each pot” for “rice seedlings. When the barnyardgrass grew to the two-leaf stage, each pot”, “injury of rice are” for “injury of the rice are”

Inhibition rate (%) Pea [5] [%]	Structure (SMILES)	Crop injury Soybean (Glycine max) (Soybean (Glycine max))	Crop injury Cotton (Gossypium indicum) [1]	Crop injury Corn (Zea maize) (Corn (Zea maize))	Herbicidal effects Barnyardgrass (Echinochloa crus-galli) [2]	Herbicidal effects Bulrush (Scirpus juncoides) [3]	Herbicidal effects Arrowhead sp. (Sagittaria pygmaea) [4]	Crop injury Rice (Oryza sativa) (Rice (Oryza sativa) [6])	Herbicidal effects Foxtail (Setaria viridis) [7]	Herbicidal effects Johnsongrass (Johnsongrass)	Herbicidal effects Crabgrass (Digitaria adsendens) [8]	Herbicidal effects Barnyardgrass (Echinochloa crus-galli) [9]	Herbicidal effects Foxtail meadow (Foxtail meadow)	Herbicidal effects Common lambquarters (Common lambsquarters)	Herbicidal effects Redroot Pigweed (Redroot Pigweed)	Crop injury Rice (Oryza sativa) (Rice (Oryza sativa) [10])
72	COc1cc(OC)nc(Oc2ccccc2C=O)n1 [B, reference compound]	5 (0-5 (Death))	5 (0-5 (Death))	5 (0-5 (Death))	5 (0-5 (Death))	5 (0-5 (Death))	4 (6-10 (Severe damages))	5 (0-5 (Death))	4 (6-10 (Severe damages))	4 (6-10 (Severe damages))	4 (6-10 (Severe damages))	3 (11-40 (Medium damages))	4 (6-10 (Severe damages))	3 (11-40 (Medium damages))	3 (11-40 (Medium damages))	5 (0-5 (Death))
0	COc1cc(OC)nc(Oc2cccnc2C2OCCO2)n1 [Compound No. 6]	0 (91-100 (No damages))	0 (91-100 (No damages))	0 (91-100 (No damages))	5 (0-5 (Death))	5 (0-5 (Death))	3 (11-40 (Medium damages))	0 (91-100 (No damages))	4 (6-10 (Severe damages))	5 (0-5 (Death))	3 (11-40 (Medium damages))	3 (11-40 (Medium damages))	4 (6-10 (Severe damages))	4 (6-10 (Severe damages))	4 (6-10 (Severe damages))	0 (91-100 (No damages))
0	COc1cc(OC)nc(Oc2cccnc2C(OC)OC)n1 [Compound No. 2, 3-(4.6-dimethoxy-2-pyrimidinyloxy)-2-pyridinecarboxaldehyde dimethylacetal]	0 (91-100 (No damages))	0 (91-100 (No damages))	0 (91-100 (No damages))	4 (6-10 (Severe damages))	4 (6-10 (Severe damages))	4 (6-10 (Severe damages))	0 (91-100 (No damages))	5 (0-5 (Death))	5 (0-5 (Death))	5 (0-5 (Death))	4 (6-10 (Severe damages))	5 (0-5 (Death))	5 (0-5 (Death))	4 (6-10 (Severe damages))	0 (91-100 (No damages))
0	COc1cc(OC)nc(Oc2cccnc2C2OCCCO2)n1 [Compound No. 8]	0 (91-100 (No damages))	0 (91-100 (No damages))	0 (91-100 (No damages))	4 (6-10 (Severe damages))	2 (41-70 (Small damages))	2 (41-70 (Small damages))	0 (91-100 (No damages))	3 (11-40 (Medium damages))	4 (6-10 (Severe damages))	3 (11-40 (Medium damages))	4 (6-10 (Severe damages))	4 (6-10 (Severe damages))	3 (11-40 (Medium damages))	3 (11-40 (Medium damages))	0 (91-100 (No damages))
